The target in the assay is T1, CYP19 (aromatase) (Homo sapiens, UniProt P11511).
T1 construct: gene CYP19A1; human recombinant CYP19
T1 sequence (P11511 1-503): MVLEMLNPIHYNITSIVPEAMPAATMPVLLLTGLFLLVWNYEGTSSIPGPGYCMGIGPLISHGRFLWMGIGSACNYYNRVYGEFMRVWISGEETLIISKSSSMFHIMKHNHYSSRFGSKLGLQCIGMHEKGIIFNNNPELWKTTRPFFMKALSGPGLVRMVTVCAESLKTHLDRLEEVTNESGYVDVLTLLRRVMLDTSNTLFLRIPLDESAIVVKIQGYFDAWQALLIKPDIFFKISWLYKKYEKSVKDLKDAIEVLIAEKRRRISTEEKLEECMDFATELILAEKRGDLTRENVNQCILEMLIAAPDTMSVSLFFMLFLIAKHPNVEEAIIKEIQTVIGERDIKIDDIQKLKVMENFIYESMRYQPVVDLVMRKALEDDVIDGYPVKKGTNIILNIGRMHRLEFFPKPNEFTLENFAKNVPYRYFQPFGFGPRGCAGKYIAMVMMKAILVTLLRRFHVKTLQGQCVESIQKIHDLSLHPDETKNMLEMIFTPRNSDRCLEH
Nature of the assay: fluorometric CYP19/MFC inhibitor screening kit (recombinant enzyme). In kind it is biochemical.

By IC50 is commonly meant the concentration at which inhibition is half-maximal. Consider `COc1ccccc1/C=C/c1ccc(OC)c(OC)c1` [3MS, 3,4,2′-trimethoxy-trans-stilbene], for which the IC50 is approximately 85 µM.
